# Measurements as given in article PMC4984525 (Cancer, 2011).
# Entries after “also recorded” stand apart in the source; their conditions may differ.
# How the values were obtained:
# [1] = Plasma pharmacokinetics of ARRY-520; assay type: in vivo, human; details: human, plasma, intravenous
# multiple myeloma = details: cited from earlier work
# HT-29 = HT-29 subcutaneous xenograft, mouse; cited from earlier work
# [2] = system: Peripheral blood mononuclear cells (PBMCs); assay: Pharmacodynamics: spindle morphology by confocal imaging; assay type: cell-based, human
smiles,measurement,setting,value
CON(C)C(=O)N1N=C(c2cc(F)ccc2F)S[C@@]1(CCCN)c1ccccc1 [ARRY-520],AUC(0-t),"[1]; 1.8 mg/m^2, AUC0–24, Schedule 2, Cycle 1 Day 5, 1.8 mg/m^2 (N=2), geometric mean",608 ng·h/mL
same,clearance,"[1]; 1.8 mg/m^2, CL, Schedule 2, Cycle 1 Day 1, 1.8 mg/m^2 (N=2), geometric mean",130 mL/min
same,clearance,"[1]; 1.8 mg/m^2, CL, Schedule 2, Cycle 1 Day 5, 1.8 mg/m^2 (N=2), geometric mean",18.3 mL/min
same,Cmax,"[1]; 1.8 mg/m^2, Cmax, Schedule 2, Cycle 1 Day 1, 1.8 mg/m^2 (N=2), geometric mean",24.4 ng/mL
same,Cmax,"[1]; 1.8 mg/m^2, Cmax, Schedule 2, Cycle 1 Day 5, 1.8 mg/m^2 (N=2), geometric mean",53.6 ng/mL
same,MRT,"[1]; 1.8 mg/m^2, MRT, Schedule 2, Cycle 1 Day 5, 1.8 mg/m^2 (N=2), median (min-max)",114 h
same,Tmax,"[1]; 1.8 mg/m^2, Tmax, Schedule 2, Cycle 1 Day 1, 1.8 mg/m^2 (N=2), median (min-max)",1 h
same,Tmax,"[1]; 1.8 mg/m^2, Tmax, Schedule 2, Cycle 1 Day 5, 1.8 mg/m^2 (N=2), median (min-max)",1 h
same,Vd,"[1]; 1.8 mg/m^2, Vss, Schedule 2, Cycle 1 Day 1, 1.8 mg/m^2 (N=2), mean",306 L
same,Vd,"[1]; 1.8 mg/m^2, Vss, Schedule 2, Cycle 1 Day 5, 1.8 mg/m^2 (N=2), mean",127 L
same,half-life,"[1]; 1.8 mg/m^2, t1/2, Schedule 2, Cycle 1 Day 1, 1.8 mg/m^2 (N=2), median (min-max)",27.1 h
same,half-life,"[1]; 1.8 mg/m^2, t1/2, Schedule 2, Cycle 1 Day 5, 1.8 mg/m^2 (N=2), median (min-max)",80 h
same,AUC(0-inf),[1]; 2.5 mg/m^2,1650 ng·h/mL
same,clearance,"[1]; 2.5 mg/m^2, CL, Schedule 1, Cycle 1 Day 1, 2.5 mg/m^2 (N=3), geometric mean (geometric %CV)",44.8 mL/min
same,Cmax,"[1]; 2.5 mg/m^2, Cmax, Schedule 1, Cycle 1 Day 1, 2.5 mg/m^2 (N=3), geometric mean (geometric %CV)",132 ng/mL
same,MRT,"[1]; 2.5 mg/m^2, MRT, Schedule 1, Cycle 1 Day 1, 2.5 mg/m^2 (N=3), median (min-max)",92.7 h
same,Tmax,"[1]; 2.5 mg/m^2, Tmax, Schedule 1, Cycle 1 Day 1, 2.5 mg/m^2 (N=3), median (min-max)",2 h
same,Vd,"[1]; 2.5 mg/m^2, Vss, Schedule 1, Cycle 1 Day 1, 2.5 mg/m^2 (N=3), mean (%CV)",405 L
same,half-life,"[1]; 2.5 mg/m^2, t1/2, Schedule 1, Cycle 1 Day 1, 2.5 mg/m^2 (N=3), median (min-max)",97.2 h
same,AUC(0-t),"[1]; 3.6 mg/m^2, AUC0–24, Schedule 2, Cycle 1 Day 1, 3.6 mg/m^2 (N=1), geometric mean",345 ng·h/mL
same,AUC(0-t),"[1]; 3.6 mg/m^2, AUC0–24, Schedule 2, Cycle 1 Day 5, 3.6 mg/m^2 (N=1), geometric mean",733 ng·h/mL
same,clearance,"[1]; 3.6 mg/m^2, CL, Schedule 2, Cycle 1 Day 1, 3.6 mg/m^2 (N=1), geometric mean",187 mL/min
same,clearance,"[1]; 3.6 mg/m^2, CL, Schedule 2, Cycle 1 Day 5, 3.6 mg/m^2 (N=1), geometric mean",22.2 mL/min
same,Cmax,"[1]; 3.6 mg/m^2, Cmax, Schedule 2, Cycle 1 Day 1, 3.6 mg/m^2 (N=1), geometric mean",73.9 ng/mL
same,Cmax,"[1]; 3.6 mg/m^2, Cmax, Schedule 2, Cycle 1 Day 5, 3.6 mg/m^2 (N=1), geometric mean",199 ng/mL
same,MRT,"[1]; 3.6 mg/m^2, MRT, Schedule 2, Cycle 1 Day 5, 3.6 mg/m^2 (N=1), median (min-max)",152 h
same,Tmax,"[1]; 3.6 mg/m^2, Tmax, Schedule 2, Cycle 1 Day 1, 3.6 mg/m^2 (N=1), median (min-max)",1 h
same,Tmax,"[1]; 3.6 mg/m^2, Tmax, Schedule 2, Cycle 1 Day 5, 3.6 mg/m^2 (N=1), median (min-max)",1.08 h
same,Vd,"[1]; 3.6 mg/m^2, Vss, Schedule 2, Cycle 1 Day 1, 3.6 mg/m^2 (N=1), mean",278 L
same,Vd,"[1]; 3.6 mg/m^2, Vss, Schedule 2, Cycle 1 Day 5, 3.6 mg/m^2 (N=1), mean",202 L
same,half-life,"[1]; 3.6 mg/m^2, t1/2, Schedule 2, Cycle 1 Day 1, 3.6 mg/m^2 (N=1), median (min-max)",18.7 h
same,half-life,"[1]; 3.6 mg/m^2, t1/2, Schedule 2, Cycle 1 Day 5, 3.6 mg/m^2 (N=1), median (min-max)",108 h
same,AUC(0-inf),[1]; 3.75 mg/m^2,1480 ng·h/mL
same,clearance,"[1]; 3.75 mg/m^2, CL, Schedule 1, Cycle 1 Day 1, 3.75 mg/m^2 (N=1), geometric mean",113 mL/min
same,Cmax,"[1]; 3.75 mg/m^2, Cmax, Schedule 1, Cycle 1 Day 1, 3.75 mg/m^2 (N=1), geometric mean",31.1 ng/mL
same,MRT,"[1]; 3.75 mg/m^2, MRT, Schedule 1, Cycle 1 Day 1, 3.75 mg/m^2 (N=1), median (min-max)",127 h
same,Tmax,"[1]; 3.75 mg/m^2, Tmax, Schedule 1, Cycle 1 Day 1, 3.75 mg/m^2 (N=1), median (min-max)",1 h
same,Vd,"[1]; 3.75 mg/m^2, Vss, Schedule 1, Cycle 1 Day 1, 3.75 mg/m^2 (N=1), mean",857 L
same,half-life,"[1]; 3.75 mg/m^2, t1/2, Schedule 1, Cycle 1 Day 1, 3.75 mg/m^2 (N=1), median (min-max)",100 h
same,AUC(0-inf),[1]; 4.5 mg/m^2,3000 ng·h/mL
same,clearance,"[1]; 4.5 mg/m^2, CL, Schedule 1, Cycle 1 Day 1, 4.5 mg/m^2 (N=4), geometric mean (geometric %CV)",49.2 mL/min
same,Cmax,"[1]; 4.5 mg/m^2, Cmax, Schedule 1, Cycle 1 Day 1, 4.5 mg/m^2 (N=4), geometric mean (geometric %CV)",53.4 ng/mL
same,MRT,"[1]; 4.5 mg/m^2, MRT, Schedule 1, Cycle 1 Day 1, 4.5 mg/m^2 (N=4), median (min-max)",142 h
same,Tmax,"[1]; 4.5 mg/m^2, Tmax, Schedule 1, Cycle 1 Day 1, 4.5 mg/m^2 (N=4), median (min-max)",1.01 h
same,Vd,"[1]; 4.5 mg/m^2, Vss, Schedule 1, Cycle 1 Day 1, 4.5 mg/m^2 (N=4), mean (%CV)",340 L
same,half-life,"[1]; 4.5 mg/m^2, t1/2, Schedule 1, Cycle 1 Day 1, 4.5 mg/m^2 (N=4), median (min-max)",100 h
same,AUC(0-inf),[1]; 5.6 mg/m^2,2520 ng·h/mL
same,clearance,"[1]; 5.6 mg/m^2, CL, Schedule 1, Cycle 1 Day 1, 5.6 mg/m^2 (N=2), geometric mean",71.7 mL/min
same,Cmax,"[1]; 5.6 mg/m^2, Cmax, Schedule 1, Cycle 1 Day 1, 5.6 mg/m^2 (N=2), geometric mean",49.6 ng/mL
same,MRT,"[1]; 5.6 mg/m^2, MRT, Schedule 1, Cycle 1 Day 1, 5.6 mg/m^2 (N=2), median (min-max)",131 h
same,Tmax,"[1]; 5.6 mg/m^2, Tmax, Schedule 1, Cycle 1 Day 1, 5.6 mg/m^2 (N=2), median (min-max)",0.959 h
same,Vd,"[1]; 5.6 mg/m^2, Vss, Schedule 1, Cycle 1 Day 1, 5.6 mg/m^2 (N=2), mean",515 L
same,half-life,"[1]; 5.6 mg/m^2, t1/2, Schedule 1, Cycle 1 Day 1, 5.6 mg/m^2 (N=2), median (min-max)",92.5 h
same,clearance,"[1]; CL, Schedule 1, Cycle 1 Day 1, Schedule Total (N=10), geometric mean (geometric %CV)",56 mL/min
same,clearance,"[1]; CL, Schedule 2, Cycle 1 Day 1, Schedule Total (N=18), geometric mean (geometric %CV)",119 mL/min
same,clearance,"[1]; CL, Schedule 2, Cycle 1 Day 5, Schedule Total (N=18), geometric mean (geometric %CV)",19.8 mL/min
same,clearance,"[1]; CL, range across cohorts, Schedule 1, Cycle 1",44.8 to 113 mL/min
same,MRT,"[1]; MRT, Schedule 1, Cycle 1 Day 1, Schedule Total (N=10), median (min-max)",127 h
same,Tmax,"[1]; Tmax, Schedule 1, Cycle 1 Day 1, Schedule Total (N=10), median (min-max)",1 h
same,Tmax,"[1]; Tmax, Schedule 2, Cycle 1 Day 1, Schedule Total (N=18), median (min-max)",1 h
same,Tmax,"[1]; Tmax, Schedule 2, Cycle 1 Day 5, Schedule Total (N=18), median (min-max)",1 h
same,Vd,"[1]; Vss, Schedule 1, Cycle 1 Day 1, Schedule Total (N=10), mean (%CV)",446 L
same,Vd,"[1]; Vss, Schedule 2, Cycle 1 Day 1, Schedule Total (N=18), mean (%CV)",306 L
same,Vd,"[1]; Vss, Schedule 2, Cycle 1 Day 5, Schedule Total (N=18), mean (%CV)",191 L
same,clearance,"[1]; clearance, plasma PK, abstract summary",~50 mL/min
same,clearance,"[1]; geometric mean CL, Schedule 1, Cycle 2, all patients, N=4",50.3 mL/min
same,MRT,"[1]; median MRT, Schedule 1",127 h
same,half-life,"[1]; median terminal t1/2, plasma PK, summary",> 90 h
same,half-life,"[1]; t1/2, Schedule 1, Cycle 1 Day 1, Schedule Total (N=10), median (min-max)",98.6 h
same,half-life,"[1]; t1/2, Schedule 2, Cycle 1 Day 1, Schedule Total (N=18), median (min-max)",26.1 h
same,activity in xenograft models of multiple myeloma,multiple myeloma,has shown activity
same,anti-cancer efficacy,HT-29,demonstrated anti-cancer efficacy
same,Aberrant spindles (with misaligned DNA) in PBMCs,"[2]; Cycle 1, Day 5, patients dosed at 1.2 mg/m^2/day (after 3 doses)",observed in some PBMCs; also recorded: Aberrant spindles are observed; also recorded: abnormal spindles were observed
same,Monopolar spindles in blood mononuclear cells,[2]; DAPI nucleic acid stain and anti-tubulin antibodies,Monopolar spindles were observed
